# Publication PMC7726757 (ACS Omega, 2020)
# Tests used:
# Experiment in all cases: Isothermal titration calorimetry
# Pm-NanK = target: T1, Pm-NanK (Pasteurella multocida, UniProt Q9CKB3, M259T); type: binding, P. multocida
# T1 sequence (Q9CKB3 1-297 M259T): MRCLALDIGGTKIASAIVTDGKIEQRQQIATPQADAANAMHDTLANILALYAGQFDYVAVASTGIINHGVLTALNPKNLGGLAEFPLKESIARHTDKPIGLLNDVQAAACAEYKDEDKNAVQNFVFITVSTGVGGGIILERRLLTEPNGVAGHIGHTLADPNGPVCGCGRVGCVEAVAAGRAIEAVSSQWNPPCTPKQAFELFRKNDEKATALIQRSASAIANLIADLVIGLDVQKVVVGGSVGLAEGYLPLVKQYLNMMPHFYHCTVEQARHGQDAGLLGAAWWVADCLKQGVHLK
# Fn-NanK = target: T2, Fn-NanK (Fusobacterium nucleatum, UniProt Q8RDN7); type: binding, F. nucleatum; conditions: Fn-NanK wild type
# T2 sequence (Q8RDN7 1-291): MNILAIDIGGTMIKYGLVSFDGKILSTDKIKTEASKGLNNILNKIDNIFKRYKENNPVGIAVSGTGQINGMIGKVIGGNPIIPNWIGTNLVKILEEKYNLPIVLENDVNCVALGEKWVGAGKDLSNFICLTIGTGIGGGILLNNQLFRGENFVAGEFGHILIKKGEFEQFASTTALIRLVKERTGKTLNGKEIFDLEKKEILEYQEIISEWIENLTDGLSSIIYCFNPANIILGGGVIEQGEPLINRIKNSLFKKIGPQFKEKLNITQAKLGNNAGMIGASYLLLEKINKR
# Vc-NanK = target: T3, Vc-NanK (Vibrio cholerae serotype O1, UniProt Q9KR61); type: binding, V. cholera
# T3 sequence (Q9KR61 1-287): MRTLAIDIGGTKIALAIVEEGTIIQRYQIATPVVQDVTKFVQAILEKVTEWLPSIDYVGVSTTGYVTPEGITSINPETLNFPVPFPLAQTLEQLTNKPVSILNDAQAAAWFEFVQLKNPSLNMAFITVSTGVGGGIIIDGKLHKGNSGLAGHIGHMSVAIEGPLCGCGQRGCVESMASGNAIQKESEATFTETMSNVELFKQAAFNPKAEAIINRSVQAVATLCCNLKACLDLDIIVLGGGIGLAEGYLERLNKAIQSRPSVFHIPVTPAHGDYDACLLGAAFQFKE
# Hi-NanK = target: T4, Hi-NanK (Haemophilus influenzae, UniProt Q4QP43); type: binding, H. influenzae
# T4 sequence (Q4QP43 1-300): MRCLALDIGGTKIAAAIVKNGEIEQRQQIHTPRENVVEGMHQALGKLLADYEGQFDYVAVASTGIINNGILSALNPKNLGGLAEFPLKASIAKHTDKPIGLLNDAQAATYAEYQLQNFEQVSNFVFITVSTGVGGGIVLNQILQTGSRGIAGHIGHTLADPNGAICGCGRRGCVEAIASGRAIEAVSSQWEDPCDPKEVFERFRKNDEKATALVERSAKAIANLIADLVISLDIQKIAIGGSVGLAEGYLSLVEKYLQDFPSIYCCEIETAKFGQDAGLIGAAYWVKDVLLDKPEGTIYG
# [1] = Hi-NanK wild type, ligand alone
# [2] = Hi-NanK, in the presence of ManNAc
structure (smiles),measurement,setting,value
"Nc1ncnc2c1ncn2[C@@H]1O[C@H](COP(=O)(O)OP(=O)(O)NP(=O)(O)O)[C@@H](O)[C@H]1O [AMPPNP, adenylyl-imidodiphosphate]",Kd,Pm-NanK; in the presence of ManNAc,112 ± 14.5 µM
same,TΔS,Pm-NanK; in the presence of ManNAc,4.6 kJ/mol
same,ΔH,Pm-NanK; in the presence of ManNAc,–4.3 ± 0.35 Kcal/mol
same,Kd,Pm-NanK; ligand alone,no measurable binding
same,Kd,Fn-NanK; in the presence of ManNAc,35 ± 1.12 µM
same,TΔS,Fn-NanK; in the presence of ManNAc,–2.87 Kcal/mol
same,ΔH,Fn-NanK; in the presence of ManNAc,–8.94 ± 0.18 Kcal/mol
same,Kd,Fn-NanK; ligand alone,61 ± 7.48 µM
same,TΔS,Fn-NanK; ligand alone,8.91 kJ/mol
same,Kd,Vc-NanK; in the presence of ManNAc,44 ± 9.2 µM
same,TΔS,Vc-NanK; in the presence of ManNAc,15.96 kJ/mol
same,ΔH,Vc-NanK; in the presence of ManNAc,–2.1 ± 0.482 Kcal/mol
same,Kd,Vc-NanK; ligand alone,no measurable binding
same,Kd,Hi-NanK; [1],53 ± 6.4 µM
same,TΔS,Hi-NanK; [1],–1.85 Kcal/mol
same,ΔH,Hi-NanK; [1],–7.7 ± 2.44 Kcal/mol
same,Kd,Hi-NanK; [2],72 ± 12 µM
same,TΔS,Hi-NanK; [2],8.12 kJ/mol
same,ΔH,Hi-NanK; [2],–3.7 ± 0.68 Kcal/mol
